Assay results from publication PMC7403668, “Intellectual disability‐associated gene ftsj1 is responsible for 2′‐O‐methylation of specific tRNAs” (EMBO Reports, 2020).

Tests used:
FTSJ1-WDR6 = biological target: T1, FTSJ1-WDR6 (Homo sapiens, UniProt Q9UET6); experiment: tRNA […]'-O-methyl transfer, UPLC-MS/MS of Gm34; format: biochemical; conditions: methyl donor, 100 μM SAM; co-substrate 5 μM tRNAPhe(GAA) from ftsj1 KO cells or with m1G37; 10 mM MgCl2, pH 7.5, 37°C, 2 h
T1 construct: mixture of FTSJ1 (C-terminal His6, High Five cells) and WDR6 (N-terminal GST, Sf9 cells), purified separately; binary complex; with tRNA (34-2'-O)-methyltransferase regulator WDR6
T1 sequence (Q9UET6 1-327 isoform Q9UET6-2): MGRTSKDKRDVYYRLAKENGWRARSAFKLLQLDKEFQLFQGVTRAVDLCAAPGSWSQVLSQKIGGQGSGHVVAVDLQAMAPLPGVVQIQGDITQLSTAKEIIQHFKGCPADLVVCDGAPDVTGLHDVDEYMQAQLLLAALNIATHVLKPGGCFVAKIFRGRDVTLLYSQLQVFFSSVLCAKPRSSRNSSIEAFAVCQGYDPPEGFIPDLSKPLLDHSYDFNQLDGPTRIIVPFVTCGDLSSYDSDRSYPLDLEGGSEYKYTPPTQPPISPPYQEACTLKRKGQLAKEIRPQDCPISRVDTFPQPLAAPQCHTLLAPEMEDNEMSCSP
T1 sequence (Q9NNW5 1-1121 partner): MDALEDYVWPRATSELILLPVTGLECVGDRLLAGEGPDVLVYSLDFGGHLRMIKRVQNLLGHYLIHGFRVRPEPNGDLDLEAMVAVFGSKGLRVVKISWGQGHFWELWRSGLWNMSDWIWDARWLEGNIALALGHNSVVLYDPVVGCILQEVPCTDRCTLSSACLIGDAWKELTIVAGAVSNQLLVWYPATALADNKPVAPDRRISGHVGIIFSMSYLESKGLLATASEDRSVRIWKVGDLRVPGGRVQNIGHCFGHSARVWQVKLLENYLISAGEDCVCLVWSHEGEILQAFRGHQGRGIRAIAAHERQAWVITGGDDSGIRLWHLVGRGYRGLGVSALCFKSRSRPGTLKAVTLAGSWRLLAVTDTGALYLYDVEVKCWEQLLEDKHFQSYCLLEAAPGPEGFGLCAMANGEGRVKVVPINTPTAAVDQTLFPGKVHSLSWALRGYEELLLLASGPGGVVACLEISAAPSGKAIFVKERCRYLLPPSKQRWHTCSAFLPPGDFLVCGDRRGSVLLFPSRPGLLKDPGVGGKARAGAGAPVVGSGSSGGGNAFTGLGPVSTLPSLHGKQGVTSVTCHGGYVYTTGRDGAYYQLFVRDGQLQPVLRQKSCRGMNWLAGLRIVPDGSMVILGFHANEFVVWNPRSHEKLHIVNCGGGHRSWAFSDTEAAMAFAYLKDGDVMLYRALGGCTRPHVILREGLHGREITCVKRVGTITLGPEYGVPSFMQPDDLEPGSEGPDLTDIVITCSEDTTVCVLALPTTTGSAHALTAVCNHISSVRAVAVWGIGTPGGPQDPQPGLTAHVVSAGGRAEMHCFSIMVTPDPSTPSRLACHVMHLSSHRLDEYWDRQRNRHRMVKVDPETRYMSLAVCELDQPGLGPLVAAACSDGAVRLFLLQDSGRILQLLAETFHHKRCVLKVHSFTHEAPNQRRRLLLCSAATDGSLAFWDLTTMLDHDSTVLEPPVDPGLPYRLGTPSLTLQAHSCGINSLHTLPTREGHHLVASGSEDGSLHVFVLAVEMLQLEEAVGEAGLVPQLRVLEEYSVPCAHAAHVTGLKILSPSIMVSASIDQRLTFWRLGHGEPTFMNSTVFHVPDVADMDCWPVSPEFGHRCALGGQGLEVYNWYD

FTSJ1 (FTSJ1-His) = biological target: T2, FTSJ1 (FTSJ1-His) (Homo sapiens, UniProt Q9UET6); experiment: isothermal titration calorimetry (iTC200), one-site model; format: binding
T2 construct: full-length, C-terminal His6-tag kept, baculovirus/High Five insect cells; cDNA from HeLa RNA; 327 residues as printed
T2 sequence (Q9UET6 1-327 isoform Q9UET6-2): T1 sequence (Q9UET6 1-327 isoform Q9UET6-2)

C[S+](CC[C@H](N)C(=O)O)C[C@H]1O[C@@H](n2cnc3c(N)ncnc32)[C@H](O)[C@@H]1O (some centres unmarked) [SAM]
tRNA 2'-O-methyl transfer, UPLC-MS/MS of Gm34 (FTSJ1-WDR6): robust Gm formation was detected after incubation with FTSJ1‐WDR6
Kd (FTSJ1 (FTSJ1-His)): ~4 µM
